One assay addresses T1, hERG channel (Homo sapiens, UniProt Q12809).
T1 construct: expressed in transfected cells
As to the kind of experiment: hERG electrophysiology, automated whole-cell patch clamp (Patchliner). The class given is cell-based. Put shortly: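 Automated whole-cell patch clamp on CHO-K1 cells stably expressing hERG; 30 nM–100 μM applied cumulatively to the same cell, ≤0.3% DMSO. Pulses: −80 mV holding, +20 mV for 300 ms, −50 mV for 300 ms tail, 0.3 Hz, 70 per concentration. Last-pulse AUC and peak, normalized to control, were fitted to a Hill equation for IC50.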

The target in the next assay is T2, Kv1.3 potassium channel (Homo sapiens, UniProt P22001).
T2 construct: expressed in transfected cells
T2 sequence (P22001 whole entry): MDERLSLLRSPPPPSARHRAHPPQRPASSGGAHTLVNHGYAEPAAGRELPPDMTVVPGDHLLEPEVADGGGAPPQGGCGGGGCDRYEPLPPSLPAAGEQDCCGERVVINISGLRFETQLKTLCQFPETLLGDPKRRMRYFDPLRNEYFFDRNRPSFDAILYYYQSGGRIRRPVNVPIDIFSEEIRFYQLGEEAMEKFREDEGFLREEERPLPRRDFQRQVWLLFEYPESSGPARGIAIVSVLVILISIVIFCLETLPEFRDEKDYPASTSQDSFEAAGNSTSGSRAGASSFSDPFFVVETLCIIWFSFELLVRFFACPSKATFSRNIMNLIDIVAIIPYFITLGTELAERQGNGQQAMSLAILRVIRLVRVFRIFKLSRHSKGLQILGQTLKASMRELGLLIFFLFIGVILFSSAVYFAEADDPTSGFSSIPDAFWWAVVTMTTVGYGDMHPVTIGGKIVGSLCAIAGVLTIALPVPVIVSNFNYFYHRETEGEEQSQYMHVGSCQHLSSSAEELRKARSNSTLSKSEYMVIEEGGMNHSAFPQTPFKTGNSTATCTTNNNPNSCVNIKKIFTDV
The assay is described as follows: Kv1.3 potassium channel blocker activity, automated whole-cell patch clamp (Patchliner). The class given is cell-based. Put shortly: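 IC50 came from Hill-equation fits of peak and AUC currents from the final pulse at each concentration, normalized to compound-free control. Compounds applied consecutively at 30 nM to 100 μM (up to 0.3% DMSO) to Kv1.3-expressing CHO-K1 cells, P/4 leak subtraction. Pulses were +40 mV, 100 ms, from −90 mV holding, at 0.1 Hz on Patchliner.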
In general terms: In patch-clamp work, channel activity is measured electrically.

Setting [1] is: CHO-K1 cells stably expressing hERG, +20 mV 300 ms, -50 mV 300 ms tail current, 0.3 Hz.
Where [2] appears, read: CHO-K1 cells stably expressing Kv1.3, 100 ms pulses from -90 mV to +40 mV, 0.1 Hz.
Setting [3] is: hERG channel, whole-cell patch clamp.
The mark [4] stands for this setting: Kv1.3 potassium channel, whole-cell patch clamp.

Structures are written as SMILES. Where only a bound is given, the exact number is not on record here.

T1 sequence (Q12809 whole entry): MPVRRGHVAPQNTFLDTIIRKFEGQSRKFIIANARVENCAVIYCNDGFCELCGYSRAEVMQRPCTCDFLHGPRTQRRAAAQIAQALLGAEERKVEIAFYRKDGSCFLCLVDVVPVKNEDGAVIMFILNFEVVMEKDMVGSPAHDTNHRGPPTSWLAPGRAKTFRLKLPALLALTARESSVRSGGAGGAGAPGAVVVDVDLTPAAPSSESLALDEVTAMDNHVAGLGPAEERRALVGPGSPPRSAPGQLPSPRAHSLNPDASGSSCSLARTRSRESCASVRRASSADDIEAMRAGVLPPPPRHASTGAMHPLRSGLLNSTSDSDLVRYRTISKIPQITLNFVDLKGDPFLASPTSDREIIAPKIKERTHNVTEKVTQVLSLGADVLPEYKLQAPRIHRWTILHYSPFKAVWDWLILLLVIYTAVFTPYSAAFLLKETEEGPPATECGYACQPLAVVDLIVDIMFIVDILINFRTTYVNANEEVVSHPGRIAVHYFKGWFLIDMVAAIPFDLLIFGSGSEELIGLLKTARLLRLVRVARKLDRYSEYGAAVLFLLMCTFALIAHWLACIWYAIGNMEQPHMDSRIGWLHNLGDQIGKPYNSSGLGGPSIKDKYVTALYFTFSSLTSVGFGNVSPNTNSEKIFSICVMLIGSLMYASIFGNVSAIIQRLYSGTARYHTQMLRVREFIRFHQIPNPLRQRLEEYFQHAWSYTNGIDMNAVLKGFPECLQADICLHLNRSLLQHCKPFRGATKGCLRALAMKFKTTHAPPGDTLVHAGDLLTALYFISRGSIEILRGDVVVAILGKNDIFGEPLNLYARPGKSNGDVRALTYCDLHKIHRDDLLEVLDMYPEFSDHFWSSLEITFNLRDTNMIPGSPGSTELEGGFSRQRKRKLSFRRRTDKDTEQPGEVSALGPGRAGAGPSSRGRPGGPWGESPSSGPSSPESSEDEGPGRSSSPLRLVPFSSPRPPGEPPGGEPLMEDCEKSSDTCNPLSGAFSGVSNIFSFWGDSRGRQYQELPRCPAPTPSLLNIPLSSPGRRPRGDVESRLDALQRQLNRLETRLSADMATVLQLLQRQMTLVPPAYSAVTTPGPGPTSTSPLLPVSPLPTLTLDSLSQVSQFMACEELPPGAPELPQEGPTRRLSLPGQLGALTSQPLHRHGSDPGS

For the compound `CO[C@H](CO)C(=O)N1CC(=O)N2CC[C@@H](c3c(O)ccc(Cl)c3Cl)C[C@H]2C1` [Compound 29, (8R,9aS)-8-(2,3-dichloro-6-hydroxyphenyl)-2-[(2R)-3-hydroxy-2-methoxypropanoyl]-hexahydro-1H-pyrido[1,2-a]pyrazin-4-one], the IC50 – broadly, the concentration that gives 50% inhibition – is above 30 µM at hERG channel (setting [1]) and below 1 µM against Kv1.3 potassium channel (setting [2]).

As to `O=C1[C@@H](CO)NC[C@@H]2C[C@H](c3c(O)ccc(Cl)c3Cl)CCN12` [Compound 57, (3R,8R,9aS)-8-(2,3-dichloro-6-hydroxyphenyl)-3-(hydroxymethyl)-octahydropyrido[1,2-a]pyrazin-4-one], the IC50 was above 30 µM against hERG channel (setting [1]) and below 1 µM at Kv1.3 potassium channel (setting [2]).

Consider `O=C1CC(N2CCNCC2)C[C@@H]2C[C@H](c3c(O)ccc(Cl)c3Cl)CN12` (stereo in doubt) [Compound 208, (2R,7R,8aS)-2-(2,3-dichloro-6-hydroxyphenyl)-7-(piperazin-1-yl)hexahydroindolizin-5(1H)-one], for which the IC50 against hERG channel (setting [3]) was below 10 µM; against Kv1.3 potassium channel (setting [4]), below 1 µM.

Consider `O=C(CO)N1CCC(=O)N2C[C@@H](c3c(O)ccc(Cl)c3Cl)C[C@H]2C1` [Compound 18, (8R,9aS)-8-(2,3-dichloro-6-hydroxyphenyl)-2-(2-hydroxyacetyl)-hexahydro-1H-pyrrolo[1,2-a][1,4]diazepin-5-one], for which the IC50 at hERG channel (setting [1]) was above 30 µM; on Kv1.3 potassium channel (setting [2]), below 1 µM.

With `N[C@@H]1CC(=O)N2C[C@@H](c3c(O)ccc(Cl)c3Cl)C[C@H]2C1` (single isomer, unassigned) [Compound 190], the IC50 is above 30 µM on hERG channel (setting [3]) and below 1 µM against Kv1.3 potassium channel (setting [4]).

For the compound `O=C1CN(c2ncc[nH]2)C[C@@H]2C[C@H](c3c(O)ccc(Cl)c3Cl)CN12` [Compound 176, (7R,8aS)-7-(2,3-dichloro-6-hydroxyphenyl)-2-(1H-imidazol-2-yl)-hexahydropyrrolo[1,2-a]pyrazin-4-one], the IC50 against hERG channel (setting [3]) is below 30 µM; on Kv1.3 potassium channel (setting [4]), below 1 µM.

Turning to `NC[C@H]1OC(=O)N2C[C@@H](c3c(O)ccc(Cl)c3Cl)C[C@@H]12` (single isomer, unassigned) [Compound 273], the IC50 at hERG channel (setting [3]) is above 30 µM; at Kv1.3 potassium channel (setting [4]), below 1 µM.

For `O=C(C[C@H](O)C(F)F)N1CC(=O)N2C[C@@H](c3c(O)ccc(Cl)c3Cl)C[C@H]2C1` [Compound 75, (7R,8aS)-7-(2,3-dichloro-6-hydroxyphenyl)-2-[(3S)-4,4-difluoro-3-hydroxybutanoyl] hexahydropyrrolo [1,2-a]pyrazin-4-one], the IC50 was above 30 µM against hERG channel (setting [3]) and below 1 µM against Kv1.3 potassium channel (setting [4]).

On to `NC(=O)[C@H]1OC(=O)N2C[C@@H](c3c(O)ccc(Cl)c3Cl)C[C@@H]12` (single isomer, unassigned) [Compound 287], for which the IC50 against hERG channel (setting [3]) was above 30 µM; on Kv1.3 potassium channel (setting [4]) it was below 1 µM.

As for `CNC(=O)C1CC(=O)N2C[C@@H](c3c(O)ccc(Cl)c3Cl)C[C@H]2C1` (stereo partly drawn) [Compound 232, (2R,8aS)-2-(2,3-dichloro-6-hydroxyphenyl)-N-methyl-5-oxo-hexahydro-1H-indolizine-7-carboxamide], the IC50 against hERG channel (setting [3]) was above 30 µM; on Kv1.3 potassium channel (setting [4]), below 1 µM.

For `O=C1CN(C2CC(O)C2)C[C@@H]2C[C@H](c3c(O)ccc(Cl)c3Cl)CN12` (stereo partly drawn) [Compound 123, (7R,8aS)-7-(2,3-dichloro-6-hydroxyphenyl)-2-(3-hydroxycyclobutyl)-hexahydropyrrolo[1,2-a]pyrazin-4-one], the IC50 on hERG channel (setting [3]) was above 30 µM; on Kv1.3 potassium channel (setting [4]), below 1 µM.

Regarding `O=C(N1CC(O)C1)N1CC(=O)N2C[C@@H](c3c(O)ccc(Cl)c3Cl)C[C@H]2C1` [Compound 47, (7R,8aS)-7-(2,3-dichloro-6-hydroxypheny1)-2-(3-hydroxyazetidine-1-carbonyl)-hexahydropyrrolo[1,2-a]pyrazin-4-one], the results for the IC50 on hERG channel (setting [1]) and against Kv1.3 potassium channel (setting [2]) were above 30 µM and below 1 µM, respectively.

`O=C1O[C@@H]([C@@H](O)CO)[C@@H]2C[C@H](c3c(O)ccc(Cl)c3Cl)CN12` (single isomer, unassigned) [Compound 260]: the figures for the IC50 against hERG channel (setting [3]) and against Kv1.3 potassium channel (setting [4]) were above 30 µM and below 1 µM, respectively.

Consider `O=C1CN([C@H]2C[C@@H](O)C2)C[C@@H]2C[C@H](c3c(O)ccc(Cl)c3Cl)CN12` (relative stereo) [Compound 126, (7R,8aS)-7-(2,3-dichloro-6-hydroxyphenyl)-2-[(1s,3R)-rel-3-hydroxycyclobutyl] hexahydropyrrolo [1,2-a]pyrazin-4-one], for which the IC50 was above 30 µM on hERG channel (setting [3]) and below 1 µM on Kv1.3 potassium channel (setting [4]).

Regarding `O=C(CCO)N1CC(=O)N2CC[C@@H](c3c(O)ccc(Cl)c3Cl)C[C@H]2C1` [Compound 11, (8R,9aS)-8-(2,3-dichloro-6-hydroxyphenyl)-2-(3-hydroxypropanoyl)octahydro-4H-pyrido[1,2-a]pyrazin-4-one], the IC50 on hERG channel (setting [1]) was above 30 µM; on Kv1.3 potassium channel (setting [2]), below 1 µM.

Regarding `O=C1C[C@@H](NCCO)C[C@@H]2C[C@H](c3c(O)ccc(Cl)c3Cl)CN12` (single isomer, unassigned) [Compound 202], the IC50 was above 30 µM against hERG channel (setting [3]) and below 1 µM at Kv1.3 potassium channel (setting [4]).

Take `CC1(O)CN(C(=O)N2CC(=O)N3C[C@@H](c4c(O)ccc(Cl)c4Cl)C[C@H]3C2)C1` [Compound 100, (7R,8aS)-7-(2,3-dichloro-6-hydroxyphenyl)-2-(3-hydroxy-3-methylazetidine-1-carbonyl)-hexahydropyrro[1,2-a]pyrazine-4-one]: the IC50 was above 30 µM on hERG channel (setting [3]) and below 1 µM at Kv1.3 potassium channel (setting [4]).

`O=C1CN(CC(O)CO)C[C@@H]2C[C@H](c3c(O)ccc(Cl)c3Cl)CN12` (stereo partly drawn) [Compound 112, (7R,8aS)-7-(2,3-dichloro-6-hydroxyphenyl)-2-(2,3-dihydroxypropyl)-hexahydropyrrolo [l,2-a]pyrazin-4-one]: the 50% inhibitory concentration (IC50) against hERG channel (setting [3]) was above 30 µM; against Kv1.3 potassium channel (setting [4]), below 1 µM.

In the case of `C[C@H](O)CN1CC(=O)N2C[C@@H](c3c(O)ccc(Cl)c3Cl)C[C@H]2C1` (single isomer, unassigned; isomer 2) [Compound 151], the IC50 on hERG channel (setting [3]) is above 30 µM; against Kv1.3 potassium channel (setting [4]), below 1 µM.

In the case of `O=C(NC[C@H]1OC(=O)N2C[C@@H](c3c(O)ccc(Cl)c3Cl)C[C@@H]12)C1CNC1` (single isomer, unassigned) [Compound 278], the IC50 is above 30 µM against hERG channel (setting [3]) and below 1 µM at Kv1.3 potassium channel (setting [4]).

As for `O=C1O[C@H](CN2CCNCC2)[C@@H]2C[C@H](c3c(O)ccc(Cl)c3Cl)CN12` (single isomer, unassigned) [Compound 280], the IC50 at hERG channel (setting [3]) is above 30 µM; against Kv1.3 potassium channel (setting [4]), below 1 µM.

Turning to `O=C1C[C@H](O)C[C@@H]2C[C@H](c3c(O)ccc(Cl)c3Cl)CN12` (single isomer, unassigned; isomer 2) [Compound 62], the IC50 is above 30 µM on hERG channel (setting [1]) and below 1 µM against Kv1.3 potassium channel (setting [2]).

As to `CNC(=O)CC1OC[C@@H]2C[C@H](c3c(O)ccc(Cl)c3Cl)CCN2C1=O` (stereo partly drawn) [Compound 188, 2-[(8R,9aS)-8-(2,3-dichloro-6-hydroxyphenyl)-4-oxo-hexahydro-1H-pyrido[2,1-c] [1,4]oxazin-3-yl]-N-methylacetamide], the IC50 against hERG channel (setting [3]) is above 30 µM; against Kv1.3 potassium channel (setting [4]), below 1 µM.

Regarding `O=C1O[C@H](CCO)[C@@H]2C[C@H](c3c(O)ccc(Cl)c3Cl)CN12` (single isomer, unassigned) [Compound 270], the IC50 on hERG channel (setting [3]) was below 30 µM; at Kv1.3 potassium channel (setting [4]) it was below 1 µM.

Turning to `O=C(CO)NC[C@@H]1OC(=O)N2C[C@@H](c3c(O)ccc(Cl)c3Cl)C[C@@H]12` (single isomer, unassigned) [Compound 274], the IC50 against hERG channel (setting [3]) was above 30 µM; on Kv1.3 potassium channel (setting [4]) it was below 1 µM.

Regarding `O=C1CN(C[C@@H]2COCCN2)C[C@@H]2C[C@H](c3c(O)ccc(Cl)c3Cl)CN12` [Compound 144, (7R,8aS)-7-(2,3-dichloro-6-hydroxyphenyl)-2-[(3R)-morpholin-3-ylmethyl]-hexahydropyrrolo [1,2-a]pyrazin-4-one], the IC50 was above 30 µM at hERG channel (setting [3]) and below 1 µM against Kv1.3 potassium channel (setting [4]).

Consider `O=C1[C@@H](CO)NC[C@@H]2C[C@H](c3c(O)ccc(Cl)c3Cl)CCN12` (relative stereo) [Compound 28, (8R,9aS)-rel-8-(2,3-dichloro-6-hydroxyphenyl)-3-((3R)-hydroxymethyl-octahydropyrido[1,2-a]pyrazin-4-one trifluoroacetic acid], for which the IC50 on hERG channel (setting [1]) is above 30 µM; against Kv1.3 potassium channel (setting [2]), below 1 µM.

With `O=C1[C@@H](CO)OC[C@@H]2C[C@H](c3c(O)ccc(Cl)c3Cl)CCN12` (single isomer, unassigned) [Compound 52], the IC50 against hERG channel (setting [1]) was above 30 µM; on Kv1.3 potassium channel (setting [2]), below 1 µM.

Turning to `O=C1CN(C(CO)CO)C[C@@H]2C[C@H](c3c(O)ccc(Cl)c3Cl)CCN12` [Compound 122, (8R,9aS)-8-(2,3-dichloro-6-hydroxyphenyl)-2-(1,3-dihydroxypropan-2-yl)-hexahydro-1H-pyrido[1,2-a] pyrazin-4-one], the IC50 was above 30 µM on hERG channel (setting [3]) and below 1 µM on Kv1.3 potassium channel (setting [4]).

On to `CC[C@H](O)CC(=O)N1CC(=O)N2C[C@@H](c3c(O)ccc(Cl)c3Cl)C[C@H]2C1` [Compound 70, (7R,8aS)-7-(2,3-dichloro-6-hydroxyphenyl)-2-[(3S)-3-hydroxypentanoyl]-hexahydropyrrolo [1,2-a]pyrazin-4-one], for which the IC50 against hERG channel (setting [3]) was below 30 µM; on Kv1.3 potassium channel (setting [4]), below 1 µM.

On to `O=C1CN(C[C@H](O)CO)C[C@@H]2C[C@H](c3c(O)ccc(Cl)c3Cl)CN12` (single isomer, unassigned; isomer 2) [Compound 115], for which the results for the IC50 against hERG channel (setting [3]) and against Kv1.3 potassium channel (setting [4]) were above 30 µM and below 1 µM, respectively.

Values taken from patent US20230049231A1 (priority 2019, published 2023).
